Laboratory results reported in US20200045961A1, “HERBICIDAL MIXTURE FOR USE ON WEEDS” (Adama Agan Ltd., priority 2017, published 2020).

Experiments:
Test in all cases: Field trial, tank mix of Propaquizafop + Fomesafen on Soybean, weed control
Format in all cases: in vivo
Acalypha indica = system: Acalypha indica
Excerpt: (§1) In the context of the present subject matter, the term “synergy” is as defined by Colby S. R. in an article entitled “Calculation of the synergistic and antagonistic responses of herbicide combinations” published in the journal Weeds, 1967, 15, p. 20-22, incorporated herein by reference in its entirety. The action expected for a given combination of […] active ingredients can be calculated as follows: […]
(§2) When the percentage of herbicidal control observed for the combination is greater than the expected percentage, there is a synergistic effect. When the percentage of control observed for the combination is equal to the expected percentage, there is an additive effect and wherein the percentage of herbicidal control observed for the combination is lower than the expected percentage, there is an antagonistic effect.
(§3) The herbicides were applied using the following applications rates:
(§4) The applications were applied 20 DAS. Design & Plot size: RBD & 25 Sq.mt.
(§5) Species wise weed count may be recorded at 15, 30 and 45 DAA (Days After Application). A subjective score of damage done by the herbicide on the plants may be given based on the weed count compared to the untreated checks. A score of 100% indicated complete control and a score of 0% indicates zero herbicide effect.
(§6) The % control observed may be calculated as follows: […]
(§7) The synergy of the mixture of fomesafen and propaquizafop may be calculated using the formula: […]

Amaranthus viridis = system: Amaranthus viridis
Excerpt: as §1, §2, §3, §4, §5, §6, §7

Commelina benghalensis = system: Commelina benghalensis
Excerpt: as §1, §2, §3, §4, §5, §6, §7

Echinochloa colona = system: Echinochloa colona
Excerpt: as §1, §2, §3, §4, §5, §6, §7

Eleusine indica = system: Eleusine indica
Excerpt: as §1, §2, §3, §4, §5, §6, §7

Digera arvensis = system: Digera arvensis
Excerpt: as §1, §2, §3, §4, §5, §6, §7

Dinebra arabica = system: Dinebra arabica
Excerpt: as §1, §3, §4, §5

CS(=O)(=O)NC(=O)c1cc(Oc2ccc(C(F)(F)F)cc2Cl)ccc1[N+](=O)[O-] [Fomesafen, 5-[2-chloro-4-(trifluoromethyl)phenoxy]-N-(methylsulfonyl)-2-nitrobenzamide]
% control observed (Acalypha indica; 500 ml/Acre, 15DAA): 58.2%
% control observed (Acalypha indica; 500 ml/Acre, 30DAA): 55.4%
% control observed (Acalypha indica; 500 ml/Acre, 45DAA): 53.8%
% control observed (Acalypha indica; 750 ml/Acre, 15DAA): 63.8%
% control observed (Acalypha indica; 750 ml/Acre, 30DAA): 61.7%
% control observed (Acalypha indica; 750 ml/Acre, 45DAA): 60.6%
% control observed (Acalypha indica; 1000 ml/Acre, 15DAA): 75.9%
% control observed (Acalypha indica; 1000 ml/Acre, 30DAA): 73.6%
% control observed (Acalypha indica; 1000 ml/Acre, 45DAA): 72.6%
% control observed (Amaranthus viridis; 500 ml/Acre, 15DAA): 67.7%
% control observed (Amaranthus viridis; 500 ml/Acre, 30DAA): 66.9%
% control observed (Amaranthus viridis; 500 ml/Acre, 45DAA): 64.8%
% control observed (Amaranthus viridis; 750 ml/Acre, 15DAA): 71.3%
% control observed (Amaranthus viridis; 750 ml/Acre, 30DAA): 70.5%
% control observed (Amaranthus viridis; 750 ml/Acre, 45DAA): 69.1%
% control observed (Amaranthus viridis; 1000 ml/Acre, 15DAA): 74.7%
% control observed (Amaranthus viridis; 1000 ml/Acre, 30DAA): 73.7%
% control observed (Amaranthus viridis; 1000 ml/Acre, 45DAA): 71.1%
% control observed (Commelina benghalensis; 500 ml/Acre, 15DAA): 66.2%
% control observed (Commelina benghalensis; 500 ml/Acre, 30DAA): 64.2%
% control observed (Commelina benghalensis; 500 ml/Acre, 45DAA): 62.7%
% control observed (Commelina benghalensis; 750 ml/Acre, 15DAA): 72.8%
% control observed (Commelina benghalensis; 750 ml/Acre, 30DAA): 70.2%
% control observed (Commelina benghalensis; 750 ml/Acre, 45DAA): 69.7%
% control observed (Commelina benghalensis; 1000 ml/Acre, 15DAA): 77.8%
% control observed (Commelina benghalensis; 1000 ml/Acre, 30DAA): 75%
% control observed (Commelina benghalensis; 1000 ml/Acre, 45DAA): 72.5%
% control observed (Echinochloa colona; 500 ml/Acre, 15DAA): 8.91%
% control observed (Echinochloa colona; 500 ml/Acre, 30DAA): 6.65%
% control observed (Echinochloa colona; 500 ml/Acre, 45DAA): 5.02%
% control observed (Echinochloa colona; 750 ml/Acre, 15DAA): 14%
% control observed (Echinochloa colona; 750 ml/Acre, 30DAA): 10.7%
% control observed (Echinochloa colona; 750 ml/Acre, 45DAA): 7.5%
% control observed (Echinochloa colona; 1000 ml/Acre, 15DAA): 18.2%
% control observed (Echinochloa colona; 1000 ml/Acre, 30DAA): 15.8%
% control observed (Echinochloa colona; 1000 ml/Acre, 45DAA): 13.6%
% control observed (Eleusine indica; 500 ml/Acre, 15DAA): 8.2%
% control observed (Eleusine indica; 500 ml/Acre, 30DAA): 4.7%
% control observed (Eleusine indica; 500 ml/Acre, 45DAA): 3.3%
% control observed (Eleusine indica; 750 ml/Acre, 15DAA): 12.6%
% control observed (Eleusine indica; 750 ml/Acre, 30DAA): 6.3%
% control observed (Eleusine indica; 750 ml/Acre, 45DAA): 5%
% control observed (Eleusine indica; 1000 ml/Acre, 15DAA): 17.1%
% control observed (Eleusine indica; 1000 ml/Acre, 30DAA): 8.9%
% control observed (Eleusine indica; 1000 ml/Acre, 45DAA): 7.5%
% control observed (Digera arvensis; 500 ml/Acre, 15DAA): 70%
% control observed (Digera arvensis; 500 ml/Acre, 30DAA): 68.5%
% control observed (Digera arvensis; 500 ml/Acre, 45DAA): 66.6%
% control observed (Digera arvensis; 750 ml/Acre, 15DAA): 74.2%
% control observed (Digera arvensis; 750 ml/Acre, 30DAA): 71.5%
% control observed (Digera arvensis; 750 ml/Acre, 45DAA): 70.5%
% control observed (Digera arvensis; 1000 ml/Acre, 15DAA): 78.2%
% control observed (Digera arvensis; 1000 ml/Acre, 30DAA): 75.2%
% control observed (Digera arvensis; 1000 ml/Acre, 45DAA): 74%
% control observed (Dinebra arabica; 500 ml/Acre, 15DAA): 2.62%
% control observed (Dinebra arabica; 500 ml/Acre, 45DAA): 0.21%
% control observed (Dinebra arabica; 750 ml/Acre, 15DAA): 15.2%
% control observed (Dinebra arabica; 750 ml/Acre, 30DAA): 11.1%
% control observed (Dinebra arabica; 750 ml/Acre, 45DAA): 10%
% control observed (Dinebra arabica; 1000 ml/Acre, 15DAA): 23.4%
% control observed (Dinebra arabica; 1000 ml/Acre, 30DAA): 16.4%
% control observed (Dinebra arabica; 1000 ml/Acre, 45DAA): 14.3%

CC(C)=NOCCOC(=O)[C@@H](C)Oc1ccc(Oc2cnc3cc(Cl)ccc3n2)cc1 [Propaquizafop, (R)-2-[[(1-methylethylidene)amino]oxy]ethyl 2-[4-[(6-chloro-2-quinoxalinyl)oxy]phenoxy]propanoate]
% control observed (Acalypha indica; 400 ml/Acre, 15DAA): 7.1%
% control observed (Acalypha indica; 400 ml/Acre, 30DAA): 3.7%
% control observed (Acalypha indica; 400 ml/Acre, 45DAA): 2.9%
% control observed (Acalypha indica; 500 ml/Acre, 15DAA): 25.2%
% control observed (Acalypha indica; 500 ml/Acre, 30DAA): 12.3%
% control observed (Acalypha indica; 500 ml/Acre, 45DAA): 9.8%
% control observed (Amaranthus viridis; 400 ml/Acre, 15DAA): 8.2%
% control observed (Amaranthus viridis; 400 ml/Acre, 30DAA): 2.6%
% control observed (Amaranthus viridis; 400 ml/Acre, 45DAA): 2.3%
% control observed (Amaranthus viridis; 500 ml/Acre, 15DAA): 13.6%
% control observed (Amaranthus viridis; 500 ml/Acre, 30DAA): 7.6%
% control observed (Amaranthus viridis; 500 ml/Acre, 45DAA): 7.1%
% control observed (Commelina benghalensis; 400 ml/Acre, 15DAA): 6.8%
% control observed (Commelina benghalensis; 400 ml/Acre, 30DAA): 3.2%
% control observed (Commelina benghalensis; 400 ml/Acre, 45DAA): 2%
% control observed (Commelina benghalensis; 500 ml/Acre, 15DAA): 16.6%
% control observed (Commelina benghalensis; 500 ml/Acre, 30DAA): 10.5%
% control observed (Commelina benghalensis; 500 ml/Acre, 45DAA): 7.7%
% control observed (Echinochloa colona; 400 ml/Acre, 15DAA): 72.9%
% control observed (Echinochloa colona; 400 ml/Acre, 30DAA): 70.8%
% control observed (Echinochloa colona; 400 ml/Acre, 45DAA): 70.4%
% control observed (Echinochloa colona; 500 ml/Acre, 15DAA): 75.8%
% control observed (Echinochloa colona; 500 ml/Acre, 30DAA): 73.9%
% control observed (Echinochloa colona; 500 ml/Acre, 45DAA): 72.9%
% control observed (Eleusine indica; 400 ml/Acre, 15DAA): 64%
% control observed (Eleusine indica; 400 ml/Acre, 30DAA): 56.7%
% control observed (Eleusine indica; 400 ml/Acre, 45DAA): 53.4%
% control observed (Eleusine indica; 500 ml/Acre, 15DAA): 65.5%
% control observed (Eleusine indica; 500 ml/Acre, 30DAA): 57.7%
% control observed (Eleusine indica; 500 ml/Acre, 45DAA): 55.2%
% control observed (Digera arvensis; 400 ml/Acre, 15DAA): 13.9%
% control observed (Digera arvensis; 400 ml/Acre, 30DAA): 9.3%
% control observed (Digera arvensis; 400 ml/Acre, 45DAA): 2.1%
% control observed (Digera arvensis; 500 ml/Acre, 15DAA): 19.5%
% control observed (Digera arvensis; 500 ml/Acre, 30DAA): 15.5%
% control observed (Digera arvensis; 500 ml/Acre, 45DAA): 14.4%
% control observed (Dinebra arabica; 400 ml/Acre, 15DAA): 68.2%
% control observed (Dinebra arabica; 400 ml/Acre, 30DAA): 67%
% control observed (Dinebra arabica; 400 ml/Acre, 45DAA): 65%
% control observed (Dinebra arabica; 500 ml/Acre, 15DAA): 72.3%
% control observed (Dinebra arabica; 500 ml/Acre, 30DAA): 69.1%
% control observed (Dinebra arabica; 500 ml/Acre, 45DAA): 66%
